From patent US10945685B2, “System and method for normalizing standardized uptake values in brain positron emission tomography (PET) images” (New York University, priority 2018, dated 2021)

Columns and labels:
Format in all cases: in vivo, human
tau [1] = test: AD-NL classification from tau PET: ROC AUC and AD-NL ratio of PBP; conditions: temporal lobe
tau [2] = test: as above; conditions: for AD-NL ratio R = (average PBP of AD group)/(average PBP of NL group), SUVP / AD-NL ratio R = (average PBP of AD group)/(average PBP of NL group), SUVR: Table 5, region not stated; for AD-NL ratio (R), SUVP PBP / AD-NL ratio (R), SUVR PBP: temporal lobe
Experimental: In another embodiment, the average PBP of a particular diseased (or abnormal) group (e.g., an AD group) for a particular ROI may be compared to the PBP of a group of normal control (NL) subjects. For example, a ratio (R) of PBP may be obtained by: R=(average PBP of diseased or abnormal group)/(average PBP of NL group)
(§1) Standardized uptake value (SUV) images were obtained by normalizing tissue radioactivity concentration by injected dose and bodyweight. Estimates of tau deposition were determined for THK53151 with the 40-60 min SUV and for AV1451 with for the 80-100 min SUV. Standard SUVR was generated by using cerebellar cortex as reference. To control the variation of SUVR measures in THK5351 and AV1451 PET caused by the off-target binding in reference region, each subject's SUV images were first transferred into standardized SUVP images, using the Peak-alignment method (as described above). In order to compare the regional SUV distribution patterns on group level, the whole brain probability density function (PDFwb) of SUVP were computed for each subject by normalizing the histograms of a subject's SUVP with the total number of intracranial voxels of that subject. Finally, the group average whole brain probability density function (PDFwb) were computed by averaging the individual subjects' PDFwb within 4 compare groups (2 tracers×2 conditions). One important advantage of SUVP over SUVR is that the Peak-alignment method standardized the range of whole brain SUV (marked in FIG. 2) into [−3,3] approximately, regardless of tracer or disease condition, thus allowing universal cutoff for different tracers, while SUVR cutoffs are tracer-dependent (e.g. 1.5 for THK and 1.19 for AV1451). Here, 1.5 is used for SUVP cutoff, representing 1.5 times std from whole brain mode. The positive binding percentage: PBP=(number of positive bring voxels)/(total number of voxels), are computed for both SUVP and SUVR in different brain tissues.
To compare the classification accuracy of AD and NL using mean SUVR and PBP (SUVR and SUVP), the ROC curve was computed and the area under curve (AUC) was computed.
We also computed the diagnostic accuracy in terms of AUC, as specified in Method section. […] The AD-NL ratio obtained using (average PBP of AD group)/(average PBP of NL group).

tau [3] = test: Tau PET tracer binding, SUVR with cerebellar cortex as reference, AD patients and NL subjects; conditions: mean (SD); for GMSUVR (Cerebral GM tracer retention) / WMSUVR (Cerebral WM tracer retention): all subjects of the tracer (AD and NL)
Experimental: Subjects come from two sources. 18 subjects (9 AD patients, and 9 healthy elderly study participants) underwent ^18F-THK5351 PET scans from the memory clinic of Tohoku University Hospital. ^18F-AV-1451 scans were obtained from the ADNI (Alzheimer's Disease Neuroimaging Initiative) database (adni.loni.usc.edu). 32 Subjects (20 NL and 12 AD) with ^18F-AV-1451 were selected from ADNI, that were matched to the age and MMSE in participants of the THK5351 group.
PET imaging was performed using an Eminence STARGATE PET scanner (Shimadzu, Kyoto, Japan). After intravenous injection of ^18F-THK5351 (185 MBq), dynamic PET images were obtained for 60 min. acquisition matrix is 128×128×79 and voxels size is 2×2×2.6 mm. ^18F-THK5351 was synthesized. MRI was performed on all participants. T1 weighted MR images were obtained using a SIGNA 1.5-Tesla machine (General Electric, Milwaukee, Wis.). In T1-weighted MRI, a 3D volumetric acquisition of a T1-weighted gradient echo sequence produced a gapless series of thin axial sections by using a vascular TOF SPGR sequence (echo time/repetition time, 2.4/50 ms; flip angle, 45°; acquisition matrix, 256×256; 1 excitation; field of view, 22 cm; slice thickness, 2.0 mm).
AV-1451 data were downloaded from ADNI with series description “AV1451 Coreg, Avg, Std Img and Vox Siz, Uniform Resolution”. An intravenous injection of 10 mCi ^18F-AV-1451 (370 MBq) is followed by a saline flush. At approximately 75 minutes following injection, a continuous 30-minute brain scan (6 frames of 5-minute duration) was performed after a CT or transmission scan for attenuation correction. PET imaging was performed using GEMINI TF TOF 16 (Philips Medical Systems), with 6 frames; acquisition matrix 128×128×90; pixel spacing 2×2 mm; slice thickness 2 mm.
Using Free-Surfer (V. 5.1, http://surfer.nmr.mgh.harvard.edu) ROI's were determined for the cerebral gray and white matter, the cerebellar hemisphere gray matter, caudate nuclear, thalamus, ponds and subcortical regions (including frontal, parietal, occipital, medial temporal cortex and lateral temporal lobe). MRI T1 images were coregistered to the mean PET images for each participant by using statistical parametric-mapping software (SPM12; Wellcome Department of Imaging Neuroscience, UCL, London, UK).
as §1, with “tissues. […]” for “tissues.”

| SMILES | AD-NL ratio (R), SUVR Mean (tau [1]) | AD-NL ratio R = (average PBP of AD group)/(average PBP of NL group), SUVP (tau [2]) | AD-NL ratio R = (average PBP of AD group)/(average PBP of NL group), SUVR (tau [2]) | AD-NL ratio (R), SUVP PBP (tau [2]) | AD-NL ratio (R), SUVR PBP (tau [2]) | SUVR, Basal ganglia (tau [3]; AD patients) | SUVR, Cerebral GM (tau [3]; AD patients) | SUVR, Cerebral WM (tau [3]; AD patients) | SUVR, Frontal cortex (tau [3]; AD patients) | SUVR, Occipital cortex (tau [3]; AD patients) | SUVR, Parietal cortex (tau [3]; AD patients) | SUVR, Temporal cortex (tau [3]; AD patients) | SUVR, Basal ganglia (tau [3]; NL subjects) | SUVR, Cerebral GM (tau [3]; NL subjects) | SUVR, Cerebral WM (tau [3]; NL subjects) | SUVR, Frontal cortex (tau [3]; NL subjects) | SUVR, Occipital cortex (tau [3]; NL subjects) | SUVR, Parietal cortex (tau [3]; NL subjects) | SUVR, Temporal cortex (tau [3]; NL subjects) | GMSUVR (Cerebral GM tracer retention) (tau [3]) | also measured |
| --- | --- | --- | --- | --- | --- | --- | --- | --- | --- | --- | --- | --- | --- | --- | --- | --- | --- | --- | --- | --- | --- |
| CNc1ccc(-c2ccc3cc(OC[C@H](O)CF)ccc3n2)cn1 [THK5351] | 1.18 | 3.1248 | 1.2747 | 2.39 | 1.25 | 2.62(.26)^ | 1.55(.16)^+ | 1.78(.14)^+ | 1.38(.18) | 1.42(.16)^+ | 1.46(.12) | 1.88(.22)*^+ | 2.64(.31) | 1.39(.20) | 1.56(.20) | 1.32(.20) | 1.22(.13) | 1.30(.24) | 1.57(.21) | 1.47(0.19) | WMSUVR (Cerebral WM tracer retention) (tau [3]): 1.67(0.20) |
| [18F]c1ccc(-c2ccc3c(c2)[nH]c2ccncc23)cn1 [AV-1451] | 1.17 | 4.4004 | 1.3258 | 3.69 | 1.3 | 1.30(.10) | 1.24(.25)^+ | 1.27(.18) | 1.18(.23) | 1.17(.13) | 1.25(.30) | 1.41(.35)*^+ | 1.30(.09) | 1.09(.09) | 1.18(.09) | 1.06(.07) | 1.09(.09) | 1.07(.10) | 1.18(.16) | 1.15(0.18) | WMSUVR (Cerebral WM tracer retention) (tau [3]): 1.21(0.13) |
